Measurements from patent US20220396577A1, “NOVEL SUBSTITUTED 1,3-8-TRIAZASPIRO[4,5] DECANE-2,4-DIONE COMPOUNDS AS INDOLEAMINE 2,3-DIOXYGENASE (IDO) AND/OR TRYPTOPHAN 2,3-DIOXYGENASE (TDO) INHIBITORS” (Merck Sharp & Dohme LLC, priority 2019, published 2022).

Experiments:
Format in all cases: biochemical
CLK2 = CLK2 (Homo sapiens, UniProt P49760); test: Off-target kinase panel, ZLYTE: CLK2; settings: read-out: Estimated IC50 (uM) CLK2
Description: (§1) The activity data was obtained in a panel of 265 and 264 for compounds 1-1 and CC-1, respectively, using the ZLYTE and ADAPTA assay methods indicated in the table below.
The ZLYTE biochemical assay employs a fluorescence-based, coupled-enzyme format and is based on the differential sensitivity of phosphorylated and non-phosphorylated peptides to proteolytic cleavage. The peptide substrate is labeled with two fluorophores—one at each end—that make up a Fluorescence Resonance Energy Transfer (FRET) pair.
In the primary reaction, the kinase transfers the gamma-phosphate of ATP to a single tyrosine, serine or threonine residue in a synthetic FRET-peptide. In the secondary reaction, a site-specific protease recognizes and cleaves non-phosphorylated FRET-peptides. Phosphorylation of FRET-peptides suppresses cleavage by the Development Reagent. […] A ratiometric method, which calculates the ratio (the Emission Ratio) of donor emission to acceptor emission after excitation of the donor fluorophore at 400 nm, is used to quantitate reaction progress, as shown in the equation below. […]
Both cleaved and uncleaved FRET-peptides contribute to the fluorescence signals and therefore to the Emission Ratio. The extent of phosphorylation of the FRET-peptide can be calculated from the Emission Ratio. […]
10. Read on fluorescence plate reader and analyze the data.

CDK9 (Cyclin T1) = CDK9 (Cyclin T1) (Homo sapiens, UniProt P50750); test: Off-target kinase panel, ADAPTA: CDK9 (Cyclin T1); settings: read-out: Estimated IC50 (uM) CDK9 (Cyclin T1)
CDK9 (Cyclin T1), sequence (P50750 whole entry): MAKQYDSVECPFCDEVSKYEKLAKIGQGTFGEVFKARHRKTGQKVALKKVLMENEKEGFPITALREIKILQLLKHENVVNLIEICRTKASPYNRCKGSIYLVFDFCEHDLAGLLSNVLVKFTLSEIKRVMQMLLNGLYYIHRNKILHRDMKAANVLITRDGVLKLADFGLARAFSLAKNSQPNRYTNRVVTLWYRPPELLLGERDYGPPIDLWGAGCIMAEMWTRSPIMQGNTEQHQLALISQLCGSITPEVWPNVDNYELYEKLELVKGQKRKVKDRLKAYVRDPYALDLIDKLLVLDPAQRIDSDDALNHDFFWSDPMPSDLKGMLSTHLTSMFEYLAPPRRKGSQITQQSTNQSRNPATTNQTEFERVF
CDK9 (Cyclin T1), sequence (O60563 whole entry partner): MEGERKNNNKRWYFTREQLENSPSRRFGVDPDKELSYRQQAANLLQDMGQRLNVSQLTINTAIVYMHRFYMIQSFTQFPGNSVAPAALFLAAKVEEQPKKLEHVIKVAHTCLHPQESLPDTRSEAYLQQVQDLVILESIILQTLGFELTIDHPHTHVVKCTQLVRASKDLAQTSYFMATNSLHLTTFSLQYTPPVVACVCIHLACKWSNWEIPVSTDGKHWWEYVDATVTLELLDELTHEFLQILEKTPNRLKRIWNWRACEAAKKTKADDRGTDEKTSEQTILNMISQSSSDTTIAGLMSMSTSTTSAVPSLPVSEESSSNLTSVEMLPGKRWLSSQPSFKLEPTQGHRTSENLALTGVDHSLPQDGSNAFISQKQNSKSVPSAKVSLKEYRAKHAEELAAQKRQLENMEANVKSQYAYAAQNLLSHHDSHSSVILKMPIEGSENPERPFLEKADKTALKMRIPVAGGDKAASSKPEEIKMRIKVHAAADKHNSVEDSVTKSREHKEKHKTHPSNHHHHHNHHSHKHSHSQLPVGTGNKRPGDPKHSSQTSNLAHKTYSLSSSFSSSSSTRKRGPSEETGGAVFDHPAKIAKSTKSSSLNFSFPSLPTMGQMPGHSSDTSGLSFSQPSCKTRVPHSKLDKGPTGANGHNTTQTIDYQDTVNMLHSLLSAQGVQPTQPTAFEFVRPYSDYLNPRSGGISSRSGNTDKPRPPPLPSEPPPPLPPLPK
Description: as §1
The Adapta universal kinase assay is a homogenous, fluorescent based immunoassay for the detection of ADP. In contrast to ATP depletion assays, the Adapta assay is highly sensitive to ADP formation such that a majority of the signal change occurs in the first 10-20% conversion of ATP to ADP. This makes the Adapta universal kinase assay well suited for use with low activity kinases.
The principle of the Adapta universal kinase assay is outlined below. The assay itself can be divided into two phases: a kinase reaction phase, and an ADP detection phase. In the kinase reaction phase, all components required for the kinase reaction are added to the well, and the reaction is allowed to incubate for 60 minutes. After the reaction, a detection solution consisting of a europium labeled anti-ADP antibody, an Alexa Fluor 647 labeled ADP tracer, and EDTA (to stop the kinase reaction) is added to the assay well. […]
ADP formation is determined by calculating the emission ratio from the assay well. The emission ratio is calculated by dividing the intensity of the tracer (acceptor) emission by the intensity of the Eu (donor) emission at 615 nm as shown in the equation below. […]
12. Read on fluorescence plate reader and analyze the data.

IDO1 = IDO1 (Homo sapiens, UniProt P14902); test: IDO1 Enzymatic Assay (A); settings: recombinant HIS-tagged IDO1, 40 nM; read-out: IDO enzymatic IC50, nM (A)
IDO1, sequence (P14902 whole entry): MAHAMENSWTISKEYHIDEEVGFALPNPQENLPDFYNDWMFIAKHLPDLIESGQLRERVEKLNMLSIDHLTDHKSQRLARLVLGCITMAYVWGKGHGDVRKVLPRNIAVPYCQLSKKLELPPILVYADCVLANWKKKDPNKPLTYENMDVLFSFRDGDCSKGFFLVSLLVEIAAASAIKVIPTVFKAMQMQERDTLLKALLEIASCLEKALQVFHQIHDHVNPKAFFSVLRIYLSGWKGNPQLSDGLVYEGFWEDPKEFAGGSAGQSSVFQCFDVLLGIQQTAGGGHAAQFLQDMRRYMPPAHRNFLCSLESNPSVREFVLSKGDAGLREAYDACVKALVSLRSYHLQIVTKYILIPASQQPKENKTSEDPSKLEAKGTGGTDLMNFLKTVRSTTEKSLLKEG
Method: Compounds to be tested were serially diluted in ten 3-fold steps in DMSO starting from 10 mM DMSO stocks. Compound dilutions or DMSO alone were then dispensed from the dilution plate into a Greiner black 384-well assay plate (catalog #781086) using an Echo 555 acoustic liquid handler (Labcyte). HIS-tagged IDO1 protein (Genbank #: NM_002164) was recombinantly expressed in Escherichia coli using ZYP5052 auto induction media supplemented with 500 μM delta aminolevulinic acid for 48 h at 16° C. IDO1 protein was purified using Ni^2+-affinity resin and size exclusion chromatography. Purified protein was then diluted in assay buffer (50 mM Tris pH 7.0, 1% glycerol, 20 μM methylene blue, 0.05% Tween-20, 20 mM sodium ascorbate, 100 units/mL catalase) to obtain a final IDO1 concentration of 40 nM. […] were dispensed to wells of the assay plate using a BioRAPTR liquid dispenser (Beckman Coulter). Assay plates containing compound and IDO1 enzyme were incubated at RT for 30 min. Afterwards, 10 μL of 400 μM tryptophan in assay buffer were added to each well of the assay plate using a BioRAPTR liquid dispenser. […] The resulting fluoresence was measured in an Envision plate reader (Perkin Elmer) with a 400/25 nm excitation filter and an 510/20 nm emission filter. […] Potencies were calculated by linear least squares fit to the four parameter logistic IC50 equation.

CLK2, sequence (P49760 whole entry): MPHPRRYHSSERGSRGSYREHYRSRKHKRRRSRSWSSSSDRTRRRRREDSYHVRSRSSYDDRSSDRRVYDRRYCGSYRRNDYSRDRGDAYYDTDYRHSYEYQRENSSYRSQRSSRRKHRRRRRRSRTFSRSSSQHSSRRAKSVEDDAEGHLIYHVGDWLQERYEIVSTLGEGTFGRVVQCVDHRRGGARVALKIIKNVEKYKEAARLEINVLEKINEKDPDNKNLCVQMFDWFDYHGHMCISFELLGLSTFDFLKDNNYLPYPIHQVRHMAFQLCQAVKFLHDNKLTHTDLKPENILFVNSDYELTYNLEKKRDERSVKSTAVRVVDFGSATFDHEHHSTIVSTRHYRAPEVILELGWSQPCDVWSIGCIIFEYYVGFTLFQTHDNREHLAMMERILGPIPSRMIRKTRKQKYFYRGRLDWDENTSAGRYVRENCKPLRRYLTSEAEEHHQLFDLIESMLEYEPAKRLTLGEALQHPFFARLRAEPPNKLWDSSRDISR

Row | IC50 (CLK2) [µM] | IC50 (CDK9 (Cyclin T1)) [µM] | IC50 (IDO1) [nM] | SMILES
1 | 0.73 | > 2 | 129 | C[C@@H]1CN(c2cc(Br)cc3[nH]ncc23)CC[C@]12NC(=O)NC2=O (single isomer, unassigned) [Compound 1-1]
2 | 0.35 | 0.15 | 113 | O=C1NC(=O)C2(CCN(c3cc(Cl)cc4[nH]ncc34)CC2)N1 [CC-1]
